Assay results from patent US9090605B2, “Substituted 5-,6- and 7-membered heterocycles, medicaments containing such compounds, and their use” (Vitae Pharmaceuticals, Inc., priority 2010, dated 2015).

target: 11β-HSD1 (Homo sapiens, UniProt P28845); experiment: In vitro inhibition of 11β-HSD1, HTRF detection of cortisol generated by human liver microsomes (biological test example 1); format: biochemical; design: detecting cortisol generated from cortisterone by human liver microsomes; from tissue; host or cells: human liver microsomes; settings: 1 hour at 37° C., cortisone 80 nM, NADPH 200 μM, read-out: IC50, inhibitory activity on 11β-HSD 1
Description: Briefly, compounds were incubated for 1 hour at 37° C. in Tris buffer (20 mM tris, 5 mM EDTA, pH 6.0) containing NADPH (200 μM) and cortisone (80 nM). Cortisol generated in the reaction was then detected with a competitive immunoassay, involving two HTRF conjugates: cortisol linked to XL665 and anti-cortisol antibody labeled with Europium cryptate. The incubation period for detection reaction was typically 2 hours. The amount of cortisol was determined by reading the time-resolved fluorescence of the wells (Ex 320/75 nm; Em 615/8.5 nm and 665/7.5 nm). The ratio of the two emission signals was then calculated (Em665*10000/Em615). […] Each assay also contained a calibration curve with cortisol to transform the fluorescent data into cortisol concentrations. Percent inhibition (% CTL) of each compound was determined relative to the carbenoxolone signal and IC50 curves were generated.

Sequence of 11β-HSD1 (P28845 whole entry): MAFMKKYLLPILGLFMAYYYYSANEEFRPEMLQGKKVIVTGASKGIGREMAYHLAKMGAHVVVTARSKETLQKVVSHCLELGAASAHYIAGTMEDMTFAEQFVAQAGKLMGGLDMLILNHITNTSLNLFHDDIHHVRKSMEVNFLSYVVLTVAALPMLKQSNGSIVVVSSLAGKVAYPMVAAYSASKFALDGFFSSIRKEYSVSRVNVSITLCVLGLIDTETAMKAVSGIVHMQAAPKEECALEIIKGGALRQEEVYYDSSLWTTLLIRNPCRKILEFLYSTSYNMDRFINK

| SMILES | IC50 [nM] |
| --- | --- |
| C[C@@H](c1ccc(-c2ccc(C3(O)COC3)cc2)cc1)N1CC[C@](CC(C)(C)O)(c2ccccc2)OC1=O [Example 1, (S)-6-(2-Hydroxy-2-methyl-propyl)-3-{(S)-1-[4′-(3-hydroxy-oxetan-3-yl)-biphenyl-4-yl]-ethyl}-6-phenyl-[1,3]oxazinan-2-one] | 56 |
| C[C@@H](c1ccc(-c2ccc(C3(C#N)CC3)nc2)cc1)N1CC[C@](CC(C)(C)O)(c2ccccc2)OC1=O [Example 2, 1-[5-(4-{(S)-1-[(S)-6-(2-Hydroxy-2-methyl-propyl)-2-oxo-6-phenyl-[1,3]oxazinan-3-yl]-ethyl}-phenyl)-pyridin-2-yl]-cyclopropanecarbonitrile] | 68 |
| C[C@@H](c1ccc(-c2ccc(C3(C(N)=O)CC3)nc2)cc1)N1CC[C@](CC(C)(C)O)(c2ccccc2)OC1=O [Example 3, 1-[5-(4-{(S)-1-[(S)-6-(2-Hydroxy-2-methyl-propyl)-2-oxo-6-phenyl-[1,3]oxazinan-3-yl]-ethyl}-phenyl)-pyridin-2-yl]-cyclopropanecarboxylic acid amide] | 39 |
| C[C@@H](c1ccc(-c2ccc(C3(C#N)CC3)nn2)cc1)N1CC[C@](CC(C)(C)O)(c2ccccc2)OC1=O [Example 4, 1-[6-(4-{(S)-1-[(S)-6-(2-Hydroxy-2-methyl-propyl)-2-oxo-6-phenyl-[1,3]oxazinan-3-yl]-ethyl}-phenyl)-pyridazin-3-yl]-cyclopropanecarbonitrile] | 53 |
| CNC(=O)C1(c2ccc(-c3ccc([C@H](C)N4CC[C@](CC(C)(C)O)(c5ccccc5)OC4=O)cc3)cn2)CC1 [Example 5, 1-[5-(4-{(S)-1-[(S)-6-(2-Hydroxy-2-methyl-propyl)-2-oxo-6-phenyl-[1,3]oxazinan-3-yl]-ethyl}-phenyl)-pyridin-2-yl]-cyclopropanecarboxylic acid methylamide] | 31 |
| C[C@@H](c1ccc(-c2ccc(C3(C(=O)N(C)C)CC3)nc2)cc1)N1CC[C@](CC(C)(C)O)(c2ccccc2)OC1=O [Example 6, 1-[5-(4-{(S)-1-[(S)-6-(2-Hydroxy-2-methyl-propyl)-2-oxo-6-phenyl-[1,3]oxazinan-3-yl]-ethyl}-phenyl)-pyridin-2-yl]-cyclopropanecarboxylic acid dimethylamide] | 21 |
| CCOC(=O)C1(c2ccc(-c3ccc([C@H](C)N4CC[C@](CC(C)(C)O)(c5ccccc5)OC4=O)cc3)nn2)CC1 [Example 7, 1-[6-(4-{(S)-1-[(S)-6-(2-Hydroxy-2-methyl-propyl)-2-oxo-6-phenyl-[1,3]oxazinan-3-yl]-ethyl}-phenyl)-pyridazin-3-yl]-cyclopropanecarboxylic acid ethyl ester] | 41 |
| C[C@@H](c1ccc(-c2ccc(C3(C(=O)O)CC3)nn2)cc1)N1CC[C@](CC(C)(C)O)(c2ccccc2)OC1=O [Example 8, 1-[6-(4-{(S)-1-[(S)-6-(2-Hydroxy-2-methyl-propyl)-2-oxo-6-phenyl-[1,3]oxazinan-3-yl]-ethyl}-phenyl)-pyridazin-3-yl]-cyclopropanecarboxylic acid] | 182 |
| C[C@@H](c1ccc(-c2ccc(C3(C(N)=O)CC3)nn2)cc1)N1CC[C@](CC(C)(C)O)(c2ccccc2)OC1=O [Example 9, 1-[6-(4-{(S)-1-[(S)-6-(2-Hydroxy-2-methyl-propyl)-2-oxo-6-phenyl-[1,3]oxazinan-3-yl]-ethyl}-phenyl)-pyridazin-3-yl]-cyclopropanecarboxylic acid amide] | 68 |
| CNC(=O)C1(c2ccc(-c3ccc([C@H](C)N4CC[C@](CC(C)(C)O)(c5ccccc5)OC4=O)cc3)nn2)CC1 [Example 10, 1-[6-(4-{(S)-1-[(S)-6-(2-Hydroxy-2-methyl-propyl)-2-oxo-6-phenyl-[1,3]oxazinan-3-yl]-ethyl}-phenyl)-pyridazin-3-yl]-cyclopropanecarboxylic acid methylamide] | 61 |
| C[C@@H](c1ccc(-c2ccc(C3(C(=O)N(C)C)CC3)nn2)cc1)N1CC[C@](CC(C)(C)O)(c2ccccc2)OC1=O [Example 11, 1-[6-(4-{(S)-1-[(S)-6-(2-Hydroxy-2-methyl-propyl)-2-oxo-6-phenyl-[1,3]oxazinan-3-yl]-ethyl}-phenyl)-pyridazin-3-yl]-cyclopropanecarboxylic acid dimethylamide] | 94 |
| C[C@@H](c1ccc(-c2ccn([C@@H]3CCOC3)c(=O)c2)cc1)N1CC[C@](CC(C)(C)O)(c2ccccc2)OC1=O [Example 12, (S)-6-(2-Hydroxy-2-methyl-propyl)-3-((S)-1-{4-[2-oxo-1-((R)-tetrahydro-furan-3-yl)-1,2-dihydro-pyridin-4-yl]-phenyl}-ethyl)-6-phenyl-[1,3]oxazinan-2-one] | 92 |

Now from value to molecule:

| IC50 [nM] | SMILES |
| --- | --- |
| 46 | C[C@@H](c1ccc(-c2ccn([C@H]3CCOC3)c(=O)c2)cc1)N1CC[C@](CC(C)(C)O)(c2ccccc2)OC1=O [Example 13, (S)-6-(2-Hydroxy-2-methyl-propyl)-3-((S)-1-{4-[2-oxo-1-((S)-tetrahydro-furan-3-yl)-1,2-dihydro-pyridin-4-yl]-phenyl}-ethyl)-6-phenyl-[1,3]oxazinan-2-one] |
| 48 | C[C@@H](c1ccc(-c2cnn(C3CCOCC3)c2)cc1)N1CC[C@](CC(C)(C)O)(c2ccccc2)OC1=O [Example 14, (S)-6-(2-Hydroxy-2-methyl-propyl)-6-phenyl-3-((S)-1-{4-[1-(tetrahydro-pyran-4-yl)-1H-pyrazol-4-yl]-phenyl}-ethyl)-[1,3]oxazinan-2-one] |
| 27 | C[C@@H](c1ccc(-c2cnn([C@@H]3CCOC3)c2)cc1)N1CC[C@](CC(C)(C)O)(c2ccccc2)OC1=O [Example 15, (S)-6-(2-Hydroxy-2-methyl-propyl)-6-phenyl-3-((S)-1-{4-[1-((R)-tetrahydro-furan-3-yl)-1H-pyrazol-4-yl]-phenyl}-ethyl)-[1,3]oxazinan-2-one] |
| 29 | C[C@@H](c1ccc(-c2cnn([C@H]3CCOC3)c2)cc1)N1CC[C@](CC(C)(C)O)(c2ccccc2)OC1=O [Example 16, (S)-6-(2-Hydroxy-2-methyl-propyl)-6-phenyl-3-((S)-1-{4-[1-((S)-tetrahydro-furan-3-yl)-1H-pyrazol-4-yl]-phenyl}-ethyl)-[1,3]oxazinan-2-one] |
| 81 | C[C@@H](c1ccc(-c2ccc(C3(C#N)CC3)cn2)cc1)N1CC[C@](CC(C)(C)O)(c2ccccc2)OC1=O [Example 17, 1-[6-(4-{(S)-1-[(S)-6-(2-Hydroxy-2-methyl-propyl)-2-oxo-6-phenyl-[1,3]oxazinan-3-yl]-ethyl}-phenyl)-pyridin-3-yl]-cyclopropanecarbonitrile] |
| 64 | C[C@@H](c1ccc(-c2ccc(C3(S(C)(=O)=O)CC3)nc2)cc1)N1CC[C@](CC(C)(C)O)(c2ccccc2)OC1=O [Example 18, (S)-6-(2-Hydroxy-2-methyl-propyl)-3-((S)-1-{4-[6-(1-methanesulfonyl-cyclopropyl)-pyridin-3-yl]-phenyl}-ethyl)-6-phenyl-[1,3]oxazinan-2-one] |
| 35 | C[C@@H](c1ccc(-c2ccc(C3(C(N)=O)CC3)cn2)cc1)N1CC[C@](CC(C)(C)O)(c2ccccc2)OC1=O [Example 19, 1-[6-(4-{(S)-1-[(S)-6-(2-Hydroxy-2-methyl-propyl)-2-oxo-6-phenyl-[1,3]oxazinan-3-yl]-ethyl}-phenyl)-pyridin-3-yl]-cyclopropanecarboxylic acid amide] |
